Measurements from paper PMC3423427, “Design and Synthesis of Potent N-Acylethanolamine-hydrolyzing Acid Amidase (NAAA) Inhibitor as Anti-Inflammatory Compounds” (PLoS ONE, 2012).
Where two headings read alike, the source gives them in different places.

What was measured:
rat NAAA = molecular target: T1, rat NAAA (Rattus norvegicus, UniProt Q5KTC7); assay: NAAA enzymatic assay (recombinant rNAAA protein, LC/MS); assay type: biochemical; conditions: IC50 ± S.E.M., triplicate; 25 µM heptadecenoylethanolamide, pH 5.0;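 further: reaction product measured by LC/MS using positive APCI ionization with MRM monitoring, quantified from chromatographic peak areas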
T1 construct: made in house; host or cells: HEK293 cells stably overexpressing rat NAAA (HEK293-rNAAA), a gift from D. Piomelli; crude 800 x g supernatant of sonicated cells
T1 sequence (Q5KTC7 34-362): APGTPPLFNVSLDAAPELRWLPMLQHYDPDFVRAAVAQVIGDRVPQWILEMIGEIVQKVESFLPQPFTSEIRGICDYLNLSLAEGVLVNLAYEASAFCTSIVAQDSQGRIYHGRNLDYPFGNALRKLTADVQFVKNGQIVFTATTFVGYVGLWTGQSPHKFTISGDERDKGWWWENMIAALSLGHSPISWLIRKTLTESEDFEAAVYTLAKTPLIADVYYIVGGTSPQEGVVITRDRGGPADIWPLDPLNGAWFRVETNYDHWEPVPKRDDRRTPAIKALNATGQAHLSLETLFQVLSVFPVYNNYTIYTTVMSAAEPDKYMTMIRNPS
Description: (§3) HEK293-rNAAA or HEK293-rFAAH cells were harvested, washed with PBS, sonicated in 20 mM Tris-HCl (pH 7.5) containing 0.32 M sucrose, and centrifuged at 800 × g for 15 min at 4°C. The supernatants were collected and protein concentrations were measured by BCA protein assay kit (Pierce, Shanghai, China). […] The reactions were terminated by adding 0.2 mL methanol containing 1 nmol heptadecanoic acid and analyzed in LC/MS.
(§4) We use an Agilent 1200-LC system coupled to a 3200Q TRAP-MS detector equipped with an ESI interface (Agilent Technologies, Shanghai, China). […] The column temperature was set at 40°C. […] Mass spectrometer (MS) detection was ionized by positive-ion atmospheric pressure chemical ionization mode (APCI^+) and monitored in MRM mode. […] Quantifications were calculated at chromatographic peak areas by using Analyst® version 1.4.1. software (Applied Biosystems).

rat FAAH = molecular target: T2, rat FAAH (Rattus norvegicus, UniProt P97612); assay: FAAH enzymatic assay (recombinant rFAAH protein, LC/MS); assay type: biochemical
T2 construct: made in house; host or cells: HEK293 cells stably overexpressing rat FAAH (HEK293-rFAAH), a gift from D. Piomelli; crude cell extract
T2 sequence (P97612 1-579): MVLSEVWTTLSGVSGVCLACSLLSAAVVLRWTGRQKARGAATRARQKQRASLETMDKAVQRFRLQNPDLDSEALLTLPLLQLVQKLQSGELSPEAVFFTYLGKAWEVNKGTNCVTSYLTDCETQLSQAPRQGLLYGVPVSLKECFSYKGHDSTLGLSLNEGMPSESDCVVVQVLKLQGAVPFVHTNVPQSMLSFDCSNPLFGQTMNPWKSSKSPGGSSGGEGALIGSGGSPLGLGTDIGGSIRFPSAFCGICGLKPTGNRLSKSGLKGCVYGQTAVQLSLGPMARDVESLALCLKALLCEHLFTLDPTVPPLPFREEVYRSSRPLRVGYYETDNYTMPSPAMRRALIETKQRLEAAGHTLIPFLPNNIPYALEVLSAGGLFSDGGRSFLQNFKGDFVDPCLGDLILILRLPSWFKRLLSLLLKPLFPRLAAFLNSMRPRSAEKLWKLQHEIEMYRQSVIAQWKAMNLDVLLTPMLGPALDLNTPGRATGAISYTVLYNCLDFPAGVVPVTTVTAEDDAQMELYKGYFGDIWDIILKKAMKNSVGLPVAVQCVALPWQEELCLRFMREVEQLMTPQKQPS
Description: as §3, §4

[1] = molecular target: T3, N-acylsphingosine amidohydrolase (ASAH) (Homo sapiens, UniProt Q13510); assay: ASAH activity assay (Figure S1); assay type: biochemical; conditions: 100 µM (Figure S1)
T3 sequence (Q13510 22-395): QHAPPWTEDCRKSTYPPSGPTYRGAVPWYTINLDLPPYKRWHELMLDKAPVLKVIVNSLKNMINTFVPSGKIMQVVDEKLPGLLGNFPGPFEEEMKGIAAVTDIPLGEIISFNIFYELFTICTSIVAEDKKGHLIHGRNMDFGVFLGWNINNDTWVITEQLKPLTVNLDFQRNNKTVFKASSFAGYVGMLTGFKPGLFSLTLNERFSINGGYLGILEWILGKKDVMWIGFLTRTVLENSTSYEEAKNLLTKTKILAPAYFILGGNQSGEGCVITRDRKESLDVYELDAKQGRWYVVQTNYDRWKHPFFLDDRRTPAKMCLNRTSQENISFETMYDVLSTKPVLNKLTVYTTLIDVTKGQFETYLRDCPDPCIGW
Description: Supplementary file pone.0043023.s001.pdf: Figure S1 Effect of vehicle (open bar) and compound 16 (100 µM, closed bars) on the activity of NAAA, FAAH, MGL, and ASAH. ***, p<0.001, one-way ANOVA, n = 3. (PDF) Click here for additional data file.

[2] = 80% rat plasma, 37°C
Description: In terms of the biological stability test, rat plasma was usually chosen as reference in vitro model for drug stability studies, [20], [21]. The hydrolysis of compound 16 was studied in 80% rat plasma at 37°C physiological condition.

NAAA [3] = molecular target: T4, NAAA (Rattus norvegicus, UniProt Q5KTC7); assay: NAAA activity in intact HEK293 cells overexpressing NAAA; assay type: cell-based; conditions: 10 µM, 8 hr
T4 sequence (Q5KTC7 34-362): T1 sequence (Q5KTC7 34-362)
Description: (§1) HEK293 cells overexpressing rat NAAA (HEK293-rNAAA) and rat FAAH (HEK293-rFAAH) were kind gifts from Dr. Daniele Piomelli in University of California, Irvine. The stable-overexpressing cell lines were maintained in Dulbecco’s Modified Eagle Medium (DMEM, Hyclone, Beijing, China) supplemented with 10% FBS (Gibco®, Shanghai, China) containing 0.3 mg/mL G418. Mouse macrophage cells RAW264.7 and Human Embryonic Kidney cell HEK293 cells were purchased from American Type Culture Collection (ATCC, Beijing, China) and maintained in DMEM supplemented with 10% FBS in humidified 5% CO2 atmosphere at 37°C. RAW264.7 cells were plated and cultured overnight until 80% confluence and then incubated with a series of compound 16 of different concentrations for 30 min before challenged by LPS.

RAW264.7 cells = tested on: RAW264.7 cells
Description: as §1
The column temperature was set at 40°C.

IL-6 = conditions: RAW264.7, 0.5 µg/ml LPS
Description: as §1
(§2) Total RNA was extracted from RAW264.7 cells with TRIzol (Invitrogen) and quantified by spectrophotometer (Beckman coulter, Shanghai, China). cDNA was synthesized from 1 µg of total RNA by using ReverTra Ace qPCR RT Kit (TOYOBO, Shanghai, China) following the manufacturer’s instructions. Real-time quantitative PCR was performed in a 7300 Real Time PCR System (Applied Biosystems, Shanghai, China) and RNA levels were normalized using glyceraldehyde-3-phosphate dehydrogenase (GAPDH) as an internal standard.

iNOS = conditions: RAW264.7, 0.5 µg/ml LPS
Description: as §1, §2

NAAA [4] = molecular target: T4, NAAA
Description: HEK293-rNAAA or HEK293-rFAAH cells were harvested, washed with PBS, sonicated in 20 mM Tris-HCl (pH 7.5) containing 0.32 M sucrose, and centrifuged at 800 × g for 15 min at 4°C. The supernatants were collected and protein concentrations were measured by BCA protein assay kit (Pierce, Shanghai, China). NAAA activity was measured by incubating 30 µg recombinant rNAAA protein with testing compound at 37°C for 30 min in 0.2 mL phosphate buffer (50 mM, pH 5.0) containing 0.1% Triton X-100, 3 mM DTT, and 25 µM heptadecenoylethanolamide as substrate. […] The reactions were terminated by adding 0.2 mL methanol containing 1 nmol heptadecanoic acid and analyzed in LC/MS.

O=C(CCc1ccc(-c2ccccc2)cc1)N1CCCC1 [Compound 16, 1–(2–Biphenyl–4–yl)ethyl–carbonyl pyrrolidine]
IC50 (rat NAAA): 2.12 ± 0.41 µM | IC50 (rat FAAH; IC50 ± S.E.M., triplicate, 25 µM anandamide, pH 8.0): > 100 µM | reduction of FAAH activity (rat FAAH; at concentration of 100 µM): no more than 30% | inhibitory effect on ASAH [1]: no inhibitory effect | compound remaining, Rat Serum 8h [2]: 89% | compound remaining, Rat Serum 8h ([2]; listed as compound 16): 89% | compound remaining, Rat Serum 16h [2]: 64% | compound remaining, Rat Serum 16h ([2]; listed as compound 16): 64% | inhibition on NAAA activity in intact cells (NAAA [3]): more than 60% | cellular PEA levels, LPS+compound (RAW264.7 cells; RAW264.7, 0.5 µg/mL LPS, LPS alone 0.67±0.12): 1.41±0.17 pmol/mg protein | cellular PEA levels, compound alone (RAW264.7 cells; RAW264.7, no LPS, vehicle 1.23±0.07): 1.30±0.23 pmol/mg protein | LPS-induced IL-6 mRNA expression (IL-6): reversed dose-dependently | LPS-induced iNOS mRNA expression (iNOS): reversed dose-dependently | Vmax of NAAA activity (NAAA [4]; 5µM compound 16, […], n = 3): 5854 ± 511 pmol/min/mg | mode of NAAA inhibition (NAAA [4]; rapid dilution, dialysis and kinetic analysis): reversible and competitive | Km (NAAA [4]; read-out: Michaelis-Menten constant Km, 5µM compound 16, […]): 328 ± 98 µM | Ki (NAAA [4]; read-out: dissociation constant Ki, calculated from Km (inhibitor) = Km (1+[I]/Ki)): 5.65 µM
